Values of other authors in patent US20220339088A1, “METHOD FOR DYEING KERATIN MATERIAL, COMPRISING THE USE OF AN ORGANIC C1-C6 ALKOXY SILANE AND AN ACIDIFIER” (Henkel AG & Co. KGaA, priority 2019, published 2022).

Conditions: 25° C.

| Compound | solubility in water (in words) | solubility in water |
| --- | --- | --- |
| O=C([O-])C1=NN(c2ccc(S(=O)(=O)[O-])cc2)C(=O)C1N=Nc1ccc(S(=O)(=O)[O-])cc1.[Na+].[Na+].[Na+] (stereo not shown) [Acid Yellow 23, trisodium salt of 4,5-dihydro-5-oxo-1-(4-sulfophenyl)-4-((4-sulfophenyl)azo)-1H-pyrazole-3-carboxylic acid] | highly soluble |  |
| Nc1cc(S(=O)(=O)[O-])cc2cc(S(=O)(=O)[O-])c(N=Nc3ccccc3)c(O)c12.[Na+].[Na+] [Acid Red 33, diantrium salt of 5-amino-4-hydroxy-3-(phenylazo)-naphthalene-2,7-disulphonate] |  | 2500 µg/mL |
| O=S(=O)([O-])c1ccc(N=Nc2c(O)ccc3ccccc23)cc1.[Na+] [Acid Orange 7, sodium salt of 4-[(2-hydroxy-1-naphthyl)azo]benzene sulphonate] |  | more than 7 g/L |
| O=C([O-])c1c(Cl)c(Cl)c(Cl)c(Cl)c1-c1c2c(Br)cc(=O)c(Br)c-2oc2c(Br)c(O)cc(Br)c12.O=C([O-])c1c(Cl)c(Cl)c(Cl)c(Cl)c1-c1c2c(Br)cc(=O)c(Br)c-2oc2c(Br)c(O)cc(Br)c12.[Na+].[Na+] [Acid Red 92, disodium salt of 3,4,5,6-tetrachloro-2-(1,4,5,8-tetrabromo-6-hydroxy-3-oxoxanthen-9-yl)benzoic acid] |  | greater than 10 g/L |
